Assay results: patent publication US12595266B2, “Pesticidally active heterocyclic derivatives with sulfur containing substituents” (SYNGENTA CROP PROTECTION AG, priority 2020, dated 2026)

What was measured:
Type in all cases: in vivo
[1] = system: Chilo suppressalis (Striped Rice Stemborer); test: Activity against Chilo suppressalis (striped rice stemborer); settings: 144 h, application rate of 200 ppm, artificial diet, L2 larvae, 6 days after infestation, read-out: control (at least one of mortality, anti-feedant effect, growth inhibition)
Description: Example B2: Activity Against Chilo suppressalis (Striped Rice Stemborer)
24-well microtiter plates with artificial diet were treated with aqueous test solutions prepared from 10′000 ppm DMSO stock solutions by pipetting. After drying, the plates were infested with L2 larvae (6-8 per well). The samples were assessed for mortality, anti-feeding effect, and growth inhibition in comparison to untreated samples 6 days after infestation. Control of Chilo suppressalis by a test sample is given when at least one of the categories mortality, anti-feedant effect, and growth inhibition is higher than the untreated sample.

[2] = system: Plutella xylostella (Diamond Back Moth); test: Activity against Plutella xylostella (diamond back moth); settings: 192 h, application rate of 200 ppm, artificial diet, Plutella eggs, 8 days after infestation, read-out: effect in at least one of the two categories (mortality or growth inhibition)
Description: Example B7: Activity Against Plutella xylostella (Diamond Back Moth)
24-well microtiter plates with artificial diet were treated with aqueous test solutions prepared from 10′000 ppm DMSO stock solutions by pipetting. After drying, Plutella eggs were pipetted through a plastic stencil onto a gel blotting paper and the plate was closed with it. The samples were assessed for mortality and growth inhibition in comparison to untreated samples 8 days after infestation.

[3] = system: Spodoptera littoralis (Egyptian Cotton Leaf Worm); test: Activity against Spodoptera littoralis (Egyptian cotton leaf worm); settings: foliar, 72 h, application rate of 200 ppm, cotton leaf discs sprayed, L1 larvae, 3 days after infestation, read-out: control (at least one of mortality, anti-feedant effect, growth inhibition)
Description: Example B8: Activity Against Spodoptera littoralis (Egyptian Cotton Leaf Worm)
Cotton leaf discs were placed onto agar in 24-well microtiter plates and sprayed with aqueous test solutions prepared from 10′000 ppm DMSO stock solutions. After drying the leaf discs were infested with five L1 larvae. The samples were assessed for mortality, anti-feeding effect, and growth inhibition in comparison to untreated samples 3 days after infestation. Control of Spodoptera littoralis by a test sample is given when at least one of the categories mortality, anti-feedant effect, and growth inhibition is higher than the untreated sample.

[4] = system: Euschistus heros (Neotropical Brown Stink Bug); test: Activity against Euschistus heros (neotropical brown stink bug); settings: 120 h, application rate of 200 ppm, soybean leaves sprayed, N2 nymphs, 5 days after infestation, read-out: effect in at least one of the two categories (mortality or growth inhibition)
Description: Example B4: Activity Against Euschistus heros (Neotropical Brown Stink Bug)
Soybean leaves on agar in 24-well microtiter plates were sprayed with aqueous test solutions prepared from 10′000 ppm DMSO stock solutions. After drying the leaves were infested with N2 nymphs. The samples were assessed for mortality and growth inhibition in comparison to untreated samples 5 days after infestation.

[5] = system: Myzus persicae (Green Peach Aphid); test: Activity against Myzus persicae (green peach aphid), systemic activity; settings: 144 h, test rate of 24 ppm, roots of infested pea seedlings in test solution (systemic), 6 days
Description: Example B9: Activity Against Myzus persicae (Green Peach Aphid) Systemic Activity
Roots of pea seedlings infested with an aphid population of mixed ages were placed directly into aqueous test solutions prepared from 10′000 DMSO stock solutions. The samples were assessed for mortality 6 days after placing seedlings into test solutions.

[6] = system: Myzus persicae (Green Peach Aphid); test: Activity against Myzus persicae (green peach aphid), feeding/contact activity; settings: foliar, 144 h, application rate of 200 ppm, sunflower leaf discs sprayed, aphid population of mixed ages, 6 days after infestation
Description: Example B6: Activity Against Myzus persicae (Green Peach Aphid) Feeding/Contact Activity
Sunflower leaf discs were placed onto agar in a 24-well microtiter plate and sprayed with aqueous test solutions prepared from 10′000 ppm DMSO stock solutions. After drying, the leaf discs were infested with an aphid population of mixed ages. The samples were assessed for mortality 6 days after infestation.

[7] = system: Diabrotica balteata (Corn Root Worm); test: Activity against Diabrotica balteata (corn root worm); settings: 96 h, application rate of 200 ppm, maize sprouts sprayed, L2 larvae, 4 days after infestation, read-out: effect in at least one of the two categories (mortality or growth inhibition)
Description: Example B3: Activity Against Diabrotica balteata (Corn Root Worm)
Maize sprouts placed onto an agar layer in 24-well microtiter plates were treated with aqueous test solutions prepared from 10′000 ppm DMSO stock solutions by spraying. After drying, the plates were infested with L2 larvae (6 to 10 per well). The samples were assessed for mortality and growth inhibition in comparison to untreated samples 4 days after infestation.

CCS(=O)(=O)c1cc(C(F)(F)F)cnc1N1Cc2cc3c(cc2C1=O)OC(F)(F)O3 [Compound P13, 6-[3-ethylsulfonyl-5-(trifluoromethyl)-2-pyridyl]-2,2-difluoro-5H-[1,3]dioxolo[4,5-f]isoindol-7-one]
≥ 80%: percent control (mortality, anti-feedant effect or growth inhibition) at 200 ppm [1] | percent effect (mortality or growth inhibition) at 200 ppm [2] | percent control (mortality, anti-feedant effect or growth inhibition) at 200 ppm [3]

CCS(=O)(=O)c1ccc(C2CC2)nc1N1Cc2cc3c(cc2C1=O)OC(F)(F)O3 [Compound P10, 6-(6-cyclopropyl-3-ethylsulfonyl-2-pyridyl)-2,2-difluoro-5H-[1,3]dioxolo[4,5-f]isoindol-7-one]
≥ 80%: percent control (mortality, anti-feedant effect or growth inhibition) at 200 ppm [1] | percent effect (mortality or growth inhibition) at 200 ppm [4] | percent effect (mortality or growth inhibition) at 200 ppm [2] | percent control (mortality, anti-feedant effect or growth inhibition) at 200 ppm [3]

CCS(=O)(=O)c1c(N2Cc3cc4c(cc3C2=O)OC(F)(F)O4)nc(-c2cncnc2)n1C [Compound P7, 6-(5-ethylsulfonyl-1-methyl-2-pyrimidin-5-yl-imidazol-4-yl)-2,2-difluoro-5H-[1,3]dioxolo[4,5-f]isoindol-7-one]
≥ 80%: percent effect (mortality or growth inhibition) at 200 ppm [2] | mortality at 24 ppm [5]

CCS(=O)(=O)c1cc(N(C)C(C)=O)cnc1N1Cc2cc3c(cc2C1=O)OC(F)(F)O3 [Compound P18, N-[6-(2,2-difluoro-7-oxo-5H-[1,3]dioxolo[4,5-f]isoindol-6-yl)-5-ethylsulfonyl-3-pyridyl]-N-methyl-acetamide]
≥ 80%: percent effect (mortality or growth inhibition) at 200 ppm [4] | mortality at 200 ppm [6] | percent effect (mortality or growth inhibition) at 200 ppm [2]

CCS(=O)(=O)c1cc(OCC(C)(F)F)cnc1N1Cc2cc3c(cc2C1=O)OC(F)(F)O3 [Compound P12, 6-[5-(2,2-difluoropropoxy)-3-ethylsulfonyl-2-pyridyl]-2,2-difluoro-5H-[1,3]dioxolo[4,5-f]isoindol-7-one]
≥ 80%: percent control (mortality, anti-feedant effect or growth inhibition) at 200 ppm [1] | percent effect (mortality or growth inhibition) at 200 ppm [7] | percent effect (mortality or growth inhibition) at 200 ppm [4] | mortality at 200 ppm [6] | percent effect (mortality or growth inhibition) at 200 ppm [2] | percent control (mortality, anti-feedant effect or growth inhibition) at 200 ppm [3]

CCS(=O)(=O)c1c(N2Cc3cc4c(cc3C2=O)OC(F)(F)O4)nc(-c2cc(C3CC3)no2)n1C [Compound P26, 6-[2-(3-cyclopropylisoxazol-5-yl)-5-ethylsulfonyl-1-methyl-imidazol-4-yl]-2,2-difluoro-5H-[1,3]dioxolo[4,5-f]isoindol-7-one]
≥ 80%: percent control (mortality, anti-feedant effect or growth inhibition) at 200 ppm [1] | percent effect (mortality or growth inhibition) at 200 ppm [7] | mortality at 200 ppm [6] | percent effect (mortality or growth inhibition) at 200 ppm [2] | percent control (mortality, anti-feedant effect or growth inhibition) at 200 ppm [3]

CCS(=O)(=O)c1c(N2Cc3cc4c(cc3C2=O)OC(F)(F)O4)nc(-c2cnn(C3CC3)c2)n1C [Compound P17, 6-[2-(1-cyclopropylpyrazol-4-yl)-5-ethylsulfonyl-1-methyl-imidazol-4-yl]-2,2-difluoro-5H-[1,3]dioxolo[4,5-f]isoindol-7-one]
≥ 80%: percent control (mortality, anti-feedant effect or growth inhibition) at 200 ppm [1] | percent effect (mortality or growth inhibition) at 200 ppm [7] | percent effect (mortality or growth inhibition) at 200 ppm [4] | mortality at 200 ppm [6] | percent effect (mortality or growth inhibition) at 200 ppm [2] | percent control (mortality, anti-feedant effect or growth inhibition) at 200 ppm [3]

CCS(=O)(=O)c1c(N2Cc3cc4c(cc3C2=O)OC(F)(F)O4)nc(-c2cnn(CC3(C#N)CC3)c2)n1C [Compound P5, 1-[[4-[4-(2,2-difluoro-7-oxo-5H-[1,3]dioxolo[4,5-f]isoindol-6-yl)-5-ethylsulfonyl-1-methyl-imidazol-2-yl]pyrazol-1-yl]methyl]cyclopropanecarbonitrile]
≥ 80%: mortality at 200 ppm [6] | percent effect (mortality or growth inhibition) at 200 ppm [2] | mortality at 24 ppm [5]

CCS(=O)(=O)c1cc(C2CC2)cnc1N1Cc2cc3c(cc2C1=O)OC(F)(F)O3 [Compound P19, 6-(5-cyclopropyl-3-ethylsulfonyl-2-pyridyl)-2,2-difluoro-5H-[1,3]dioxolo[4,5-f]isoindol-7-one]
≥ 80%: percent control (mortality, anti-feedant effect or growth inhibition) at 200 ppm [1] | percent effect (mortality or growth inhibition) at 200 ppm [7] | mortality at 200 ppm [6] | percent effect (mortality or growth inhibition) at 200 ppm [2] | percent control (mortality, anti-feedant effect or growth inhibition) at 200 ppm [3]

CCS(=O)(=O)c1ccc(-n2cncn2)nc1N1Cc2cc3c(cc2C1=O)OC(F)(F)O3 [Compound P11, 6-[3-ethylsulfonyl-6-(1,2,4-triazol-1-yl)-2-pyridyl]-2,2-difluoro-5H-[1,3]dioxolo[4,5-f]isoindol-7-one]
≥ 80%: percent control (mortality, anti-feedant effect or growth inhibition) at 200 ppm [1] | percent effect (mortality or growth inhibition) at 200 ppm [7] | percent effect (mortality or growth inhibition) at 200 ppm [2] | percent control (mortality, anti-feedant effect or growth inhibition) at 200 ppm [3]

CCS(=O)(=O)c1cc(OCC(F)(F)F)cnc1N1Cc2cc3c(cc2C1=O)OC(F)(F)O3 [Compound P8, 6-[3-ethylsulfonyl-5-(2,2,2-trifluoroethoxy)-2-pyridyl]-2,2-difluoro-5H-[1,3]dioxolo[4,5-f]isoindol-7-one]
≥ 80%: percent control (mortality, anti-feedant effect or growth inhibition) at 200 ppm [1] | percent effect (mortality or growth inhibition) at 200 ppm [7] | percent effect (mortality or growth inhibition) at 200 ppm [2] | percent control (mortality, anti-feedant effect or growth inhibition) at 200 ppm [3]

CCS(=O)(=O)c1c(N2Cc3cc4c(cc3C2=O)OC(F)(F)O4)nc(OCC(F)(F)F)n1C [Compound P6, 6-[5-ethylsulfonyl-1-methyl-2-(2,2,2-trifluoroethoxy)imidazol-4-yl]-2,2-difluoro-5H-[1,3]dioxolo[4,5-f]isoindol-7-one]
≥ 80%: percent control (mortality, anti-feedant effect or growth inhibition) at 200 ppm [1] | percent effect (mortality or growth inhibition) at 200 ppm [7] | percent effect (mortality or growth inhibition) at 200 ppm [2] | percent control (mortality, anti-feedant effect or growth inhibition) at 200 ppm [3]

CCS(=O)(=O)c1c(N2Cc3cc4c(cc3C2=O)OC(F)(F)O4)nc(-n2ccc(Cl)n2)n1C [Compound P21, 6-[2-(3-chloropyrazol-1-yl)-5-ethylsulfonyl-1-methyl-imidazol-4-yl]-2,2-difluoro-5H-[1,3]dioxolo[4,5-f]isoindol-7-one]
≥ 80%: percent effect (mortality or growth inhibition) at 200 ppm [7] | percent effect (mortality or growth inhibition) at 200 ppm [4] | mortality at 200 ppm [6] | percent effect (mortality or growth inhibition) at 200 ppm [2] | percent control (mortality, anti-feedant effect or growth inhibition) at 200 ppm [3]
